Measurements: the NIST ThermoML archive (doi:10.1016/j.jct.2012.11.011)
± gives the expanded uncertainty stated by the source.

Assay: xn = mol fraction of the nth substance listed
Settings: Liquid, Vibrating tube method

CCOC(=O)OCC [diethyl carbonate] + CCCCCCCCCC
mass density [kg/m3]
Settings	x1 = 0.0538	x1 = 0.1716	x1 = 0.2151	x1 = 0.3257	x1 = 0.5032	x1 = 0.5482	x1 = 0.7985	x1 = 0.8989	x1 = 0.9487
288.15 K, 100 kPa	740.8 ± 0.3	759.4 ± 0.3	766.3 ± 0.3	786.5 ± 0.3	821.3 ± 0.3	832.2 ± 0.3	903.2 ± 0.3	937.5 ± 0.3	956.9 ± 0.3
288.15 K, 5000 kPa	744.5 ± 0.3	763.3 ± 0.3	770.2 ± 0.3	790.5 ± 0.3	826.7 ± 0.3	836.6 ± 0.3	907.4 ± 0.3	943.6 ± 0.3	963 ± 0.3
288.15 K, 10000 kPa	748 ± 0.4	766.8 ± 0.4	773.7 ± 0.4	794.3 ± 0.3	830.7 ± 0.3	840.6 ± 0.3	911.5 ± 0.3	947.7 ± 0.3	967.1 ± 0.3
288.15 K, 20000 kPa	754.6 ± 0.4	773.6 ± 0.4	780.5 ± 0.4	801.2 ± 0.4	837.8 ± 0.4	847.8 ± 0.3	919 ± 0.3	955.4 ± 0.3	974.8 ± 0.3
288.15 K, 30000 kPa	760.6 ± 0.5	780.9 ± 0.5	786.9 ± 0.5	807.5 ± 0.4	844.6 ± 0.4	854.5 ± 0.4	926 ± 0.3	962.6 ± 0.3	981.9 ± 0.3
288.15 K, 40000 kPa	766.4 ± 0.6	785.6 ± 0.6	792.8 ± 0.5	813.8 ± 0.5	850.9 ± 0.4	860.9 ± 0.4	932.8 ± 0.3	969.5 ± 0.3	988.9 ± 0.3
298.15 K, 100 kPa	733.1 ± 0.3	751.2 ± 0.3	758 ± 0.3	777.9 ± 0.3	813.5 ± 0.3	823.1 ± 0.3	892.8 ± 0.3	928.3 ± 0.3	947.6 ± 0.3
298.15 K, 5000 kPa	737.6 ± 0.3	755.8 ± 0.3	762.6 ± 0.3	782.6 ± 0.3	818.2 ± 0.3	827.8 ± 0.3	897.7 ± 0.3	933.5 ± 0.3	952.7 ± 0.3
298.15 K, 10000 kPa	740.7 ± 0.4	759.1 ± 0.4	766 ± 0.4	786.1 ± 0.3	821.9 ± 0.3	831.7 ± 0.3	901.5 ± 0.3	937.5 ± 0.3	956.6 ± 0.3
298.15 K, 20000 kPa	747.7 ± 0.4	766.2 ± 0.4	773.1 ± 0.4	793.5 ± 0.4	829.7 ± 0.4	839.4 ± 0.3	909.6 ± 0.3	945.7 ± 0.3	964.8 ± 0.3
298.15 K, 30000 kPa	753.9 ± 0.5	772.6 ± 0.5	779.8 ± 0.5	800.2 ± 0.5	836.7 ± 0.4	846.5 ± 0.4	917.1 ± 0.3	953.2 ± 0.3	972.2 ± 0.3
298.15 K, 40000 kPa	759.8 ± 0.6	778.7 ± 0.6	785.8 ± 0.6	806.5 ± 0.5	843.3 ± 0.4	853.1 ± 0.4	924.1 ± 0.3	960.2 ± 0.3	979.3 ± 0.3
308.15 K, 100 kPa	725.5 ± 0.3	743.2 ± 0.3	749.9 ± 0.3	769.4 ± 0.3	804.4 ± 0.3	813.9 ± 0.3	882.5 ± 0.3	917.7 ± 0.3	936.6 ± 0.3
308.15 K, 5000 kPa	729.6 ± 0.3	747.5 ± 0.3	754.3 ± 0.3	773.9 ± 0.3	809 ± 0.3	818.4 ± 0.3	887.3 ± 0.3	922.6 ± 0.3	941.5 ± 0.3
308.15 K, 10000 kPa	733.6 ± 0.4	751.6 ± 0.4	758.4 ± 0.4	778.1 ± 0.3	813.5 ± 0.3	823 ± 0.3	892 ± 0.3	927.1 ± 0.3	946.2 ± 0.3
308.15 K, 20000 kPa	740.7 ± 0.5	758.9 ± 0.4	765.9 ± 0.4	785.9 ± 0.4	821.4 ± 0.4	831 ± 0.4	900.5 ± 0.3	935.7 ± 0.3	954.6 ± 0.3
308.15 K, 30000 kPa	747.5 ± 0.5	765.8 ± 0.5	772.7 ± 0.5	792.9 ± 0.5	828.9 ± 0.4	838.4 ± 0.4	908.2 ± 0.3	943.8 ± 0.3	962.7 ± 0.3
308.15 K, 40000 kPa	753.6 ± 0.6	772.1 ± 0.6	779.1 ± 0.6	799.4 ± 0.5	835.8 ± 0.4	845.3 ± 0.4	915.6 ± 0.3	951.2 ± 0.3	970.2 ± 0.3

COC(=O)OC [dimethyl carbonate] + CCCCCCCC
mass density [kg/m3]
Settings	x1 = 0.0535	x1 = 0.0978	x1 = 0.3935	x1 = 0.496	x1 = 0.5475	x1 = 0.5937	x1 = 0.7002	x1 = 0.8013	x1 = 0.8979	x1 = 0.9502
288.15 K, 100 kPa	716.4 ± 0.3	723.8 ± 0.3	791.6 ± 0.3	822.9 ± 0.3	840.9 ± 0.3	854.9 ± 0.3	899.6 ± 0.3	941.7 ± 0.3	1005 ± 0.3	1036.8 ± 0.4
288.15 K, 5000 kPa	719.8 ± 0.4	727.9 ± 0.3	796.9 ± 0.3	827.5 ± 0.3	844.6 ± 0.3	862 ± 0.3	904.6 ± 0.3	952.4 ± 0.3	1009 ± 0.3	1043.2 ± 0.4
288.15 K, 10000 kPa	723.6 ± 0.4	731.9 ± 0.4	801.1 ± 0.4	831.8 ± 0.4	849 ± 0.4	866.2 ± 0.4	908.9 ± 0.4	956.9 ± 0.4	1013.3 ± 0.4	1047.5 ± 0.4
288.15 K, 20000 kPa	730.9 ± 0.5	739.3 ± 0.5	808.8 ± 0.4	839.6 ± 0.4	857 ± 0.4	874.3 ± 0.4	917 ± 0.4	965 ± 0.4	1021.7 ± 0.4	1055.7 ± 0.4
288.15 K, 30000 kPa	737.5 ± 0.6	745.8 ± 0.5	816 ± 0.5	846.9 ± 0.4	864.3 ± 0.4	881.6 ± 0.4	924.4 ± 0.4	972.5 ± 0.4	1029.1 ± 0.4	1063.1 ± 0.4
288.15 K, 40000 kPa	743.7 ± 0.6	752 ± 0.6	822.8 ± 0.5	853.8 ± 0.5	871.2 ± 0.5	888.7 ± 0.4	931.6 ± 0.4	979.7 ± 0.4	1036.3 ± 0.4	1070.4 ± 0.4
298.15 K, 100 kPa	707.4 ± 0.3	715.3 ± 0.3	782.6 ± 0.3	812.6 ± 0.3	829.5 ± 0.3	846.5 ± 0.3	888.6 ± 0.3	936 ± 0.3	992.1 ± 0.3	1025.9 ± 0.4
298.15 K, 5000 kPa	712.2 ± 0.4	720.2 ± 0.4	787.8 ± 0.3	817.9 ± 0.3	834.9 ± 0.3	851.7 ± 0.3	893.9 ± 0.3	941.4 ± 0.3	997.3 ± 0.3	1031.1 ± 0.4
298.15 K, 10000 kPa	715.9 ± 0.4	724.1 ± 0.4	791.8 ± 0.4	822 ± 0.4	839 ± 0.4	856.1 ± 0.4	898.1 ± 0.4	945.6 ± 0.3	1001.5 ± 0.3	1035.3 ± 0.4
298.15 K, 20000 kPa	723.6 ± 0.5	731.7 ± 0.5	800.1 ± 0.4	830.4 ± 0.4	847.5 ± 0.4	864.6 ± 0.4	906.8 ± 0.4	954.2 ± 0.4	1010.1 ± 0.3	1043.7 ± 0.4
298.15 K, 30000 kPa	730.5 ± 0.6	738.7 ± 0.6	807.7 ± 0.5	838.1 ± 0.4	855.3 ± 0.4	872.4 ± 0.4	914.8 ± 0.4	962.1 ± 0.4	1018 ± 0.4	1051.7 ± 0.4
298.15 K, 40000 kPa	736.8 ± 0.7	745.1 ± 0.6	814.6 ± 0.5	845.1 ± 0.5	862.5 ± 0.5	879.6 ± 0.4	922 ± 0.4	969.7 ± 0.4	1025.6 ± 0.4	1059.1 ± 0.4
308.15 K, 100 kPa	699.2 ± 0.3	706.9 ± 0.3	772.9 ± 0.3	802.3 ± 0.3	819 ± 0.3	835.7 ± 0.3	877.3 ± 0.3	924.1 ± 0.3	979.6 ± 0.3	1013.1 ± 0.4
308.15 K, 5000 kPa	704 ± 0.4	711.8 ± 0.4	778.1 ± 0.3	807.6 ± 0.3	824.2 ± 0.3	841 ± 0.3	882.6 ± 0.3	929.2 ± 0.3	984.6 ± 0.3	1018.1 ± 0.4
308.15 K, 10000 kPa	708.3 ± 0.4	716.2 ± 0.4	782.8 ± 0.4	812.4 ± 0.4	829.1 ± 0.4	845.9 ± 0.4	887.5 ± 0.3	934.4 ± 0.3	989.6 ± 0.3	1023.1 ± 0.4
308.15 K, 20000 kPa	716.3 ± 0.5	724.3 ± 0.5	791.5 ± 0.4	821.3 ± 0.4	838.1 ± 0.4	854.9 ± 0.4	896.6 ± 0.4	943.4 ± 0.4	998.7 ± 0.3	1032.1 ± 0.4
308.15 K, 30000 kPa	723.7 ± 0.6	731.6 ± 0.6	799.6 ± 0.5	829.5 ± 0.5	846.4 ± 0.4	863.3 ± 0.4	905 ± 0.4	951.9 ± 0.4	1007.1 ± 0.3	1040.4 ± 0.4
308.15 K, 40000 kPa	730.4 ± 0.7	738.4 ± 0.7	806.9 ± 0.5	836.9 ± 0.5	853.9 ± 0.5	870.8 ± 0.5	912.8 ± 0.4	959.7 ± 0.4	1015 ± 0.4	1048.3 ± 0.4
